Experimental findings from ChEMBL document CHEMBL5154824, “Design and synthesis of multifunctional microtubule targeting agents endowed with dual pro-apoptotic and anti-autophagic efficacy” (Eur J Med Chem, 2022) are described below.

Assay [1] in a line: Induction of Pro-apoptosis in human HL-60 cells assessed as increase in apoptotic cells at 50 uM after 48 hrs by TMRM dye based flow cytometric analysis. It is filed as functional. In general terms: A flow cytometer gives signals particle by particle.
Assay [2] in a line: Induction of Pro-apoptosis in human HL-60 cells assessed as increase in apoptotic cells at 20 uM after 48 hrs by TMRM dye based flow cytometric analysis. The format is functional.

For `CC(=O)OC1=C(c2cccc3ccccc23)Oc2ccc(N3CCN(C(C)=O)CC3)cc2-n2cccc21`, the Activity result in assay [1] is “>=70%”; in assay [2], less than 30%.
